In patent publication US20210338650A1, “CXCL10 Inhibitors” (LAPKO INC, dba AFECTA PHARMACEUTICALS, priority 2020, published 2021):

What was measured:
CXCL10 = CXCL10 levels in retina tissue of STZ diabetic rats, topical eye drops; type: in vivo; settings: eye drops 1-5%, 20 μL three times per day, 30 days, retina homogenate ELISA, vs control eye
Text: CXCL10 expression is associated with age related and diabetes induced retinopathy. A hallmark of these retinopathies is retinal vascular leakage (i.e. increased retinal vascular permeability) thought to induced by CXCL10. To test the in vivo effect of the compounds on treatment of retinopathies associated with increased CXCL10 levels, diabetes was induced in rats by treatment with Streptozotocin (STZ) according established methods (Akbarzadeh et al, J Clin Biochem. 2007 September; 22(2): 60-64) Testing began once the diabetes had been established in the animals. Compounds were formulated into a topically applied eye drop solution containing 1-5% of compounds 91 and 108 along with ethylene glycol, sodium lauryl sulfate, hyaluronic acid, and sterile water at pH 7.0. […] CXCL10 expression was measured in retina tissue homogenate and retinal vascular permeability was assayed using the measurement of leakage of Evans Blue dye from retinal vessels, a well-established method (Invest Ophthalmol Vis Sci 2001 March; 42: 789-794).

[1] = test system: human subjects suffering from dermatitis; test: Clinical treatment of dermatitis/eczema with topical cream, Investigator's Global Assessment (IGA); type: in vivo; settings: 7% topical cream twice per day, 3-4 weeks, vs area treated with cream base alone
Text: To test the effect of the compounds on treatment of human dermatologic disorders associated with increased CXCL10 production by keratinocytes, Compound 97 and Compound 98 were formulated with stearic acid, lanolin (anhydrous), mineral oil and triethanolamine into a topically applied cream at a concentration of 7%. The compounds in the cream base were applied topically twice per day to human subjects suffering from dermatitis in an area of the skin with active skin lesions for 3-4 weeks. The control was the topical cream base composition without the active compounds. Outcome was measured by an experienced clinical observer as assessed by visible reduction or disappearance of the lesions as assessed in the treated area vs the control area treated only with the cream base alone using Investigator's Global Assessment (IGA) scale.

## COc1ccc2[nH]c([S+]([O-])Cc3ncc(C)c(OC)c3C)nc2c1 (stereo not shown) [Compound 91]
CXCL10
  amount of CXCL10 produced by the retina: significant reduction

## Cc1c(OCC(F)(F)F)ccnc1C[S+]([O-])c1nc2ccccc2[nH]1 (stereo not shown) [Compound 97]
[1]
  dermatitis/eczema lesions, Investigator's Global Assessment (IGA): pronounced effect on reducing the dermatitis/eczema

## COCCCOc1ccnc(C[S+]([O-])c2nc3ccccc3[nH]2)c1C (stereo not shown) [Compound 98]
[1]
  dermatitis/eczema lesions, Investigator's Global Assessment (IGA): pronounced effect on reducing the dermatitis/eczema

## COc1ccnc(C[S+]([O-])c2nc3cc(OC(F)F)ccc3[nH]2)c1OC (stereo not shown) [Compound 108]
CXCL10
  amount of CXCL10 produced by the retina: significant reduction
